Experimental data reported in patent US8952150B2, “Prostaglandin transporter inhibitors and uses thereof” (Albert Einstein College of Medicine of Yeshiva University, priority 2009, dated 2015).

Biological target: rat PGT (Rattus norvegicus (Rat), UniProt Q00910)
Assay: [3H]PGE2 uptake inhibition in MDCK cells stably transfected with rat PGT (percent inhibition and IC50)
Assay type: cell-based
Details: for Inh (% of Ctl) 0.1 μM: 0.1 μM compound; for Inh (% of Ctl) 0.1 μM / Inh (% of Ctl) 0.5 μM / Inh (% of Ctl) 1 μM: inhibition of [3H]PGE2 uptake; for Inh (% of Ctl) 0.5 μM: 0.5 μM compound; for Inh (% of Ctl) 1 μM: 1 μM compound; for IC50: [3H]PGE2 uptake, MDCK cells stably transfected with rat PGT
Procedure, shortened: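 Rat PGT-transfected MDCK cells, on day 4 after seeding, took up [3H]PGE2 in Waymouth buffer at room temperature, with compound (EtOH stock diluted in buffer) added immediately before tracer. Intracellular radioactivity counted after lysis; percent inhibition versus vehicle, IC50 by fitting y=m1−m1*(m0/(m2+m0)).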

| SMILES | Inh (% of Ctl) 0.1 μM | Inh (% of Ctl) 0.5 μM | Inh (% of Ctl) 1 μM | IC50 |
| --- | --- | --- | --- | --- |
| O=C(NCCOCCOCCNc1nc(Nc2ccc(O)cc2)nc(Nc2ccc(C(=O)NCc3c(F)cccc3F)cc2)n1)c1ccccc1 [compound 128] | 36.6 % of Ctl | 71.8 % of Ctl | 82.2 % of Ctl |  |
| O=C(NCCOCCOCCNc1nc(Nc2ccc(O)cc2)nc(Nc2ccc(C(=O)NCc3ccc(F)c(F)c3)cc2)n1)c1ccccc1 [compound 129] | 8.9 % of Ctl | 45.1 % of Ctl | 65.6 % of Ctl |  |
| O=C(NCCOCCOCCNc1nc(Nc2ccc(O)cc2)nc(Nc2ccc(C(=O)NCc3cc(F)cc(F)c3)cc2)n1)c1ccccc1 [compound 130] | 41.6 % of Ctl | 73.2 % of Ctl | 81.7 % of Ctl |  |
| O=C(NCCOCCOCCNc1nc(Nc2ccc(O)cc2)nc(Nc2ccc(C(=O)NCc3ccc(F)cc3F)cc2)n1)c1ccccc1 [compound 131] | 22.3 % of Ctl | 47.0 % of Ctl | 74.3 % of Ctl |  |
| N[C@@H](C(=O)NCCOCCNc1nc(Nc2ccc(O)cc2)nc(Nc2ccc(C(=O)NCc3ccccc3)cc2)n1)c1ccccc1 [compound 132] | 15.0 % of Ctl | 22.1 % of Ctl | 32.4 % of Ctl |  |
| N[C@H](Cc1ccccc1)C(=O)NCCOCCNc1nc(Nc2ccc(O)cc2)nc(Nc2ccc(C(=O)NCc3ccccc3)cc2)n1 [compound 133] | 4.3 % of Ctl | 12.6 % of Ctl | 19.4 % of Ctl |  |
| O=C(NCc1ccccc1)c1ccc(Nc2nc(NCCOCCNC(=O)c3ccccc3C(F)(F)F)nc(Nc3ccc(O)cc3)n2)cc1 [compound 134] | 14.0 % of Ctl | 27.7 % of Ctl | 46.7 % of Ctl |  |
| O=C(NCCOCCNc1nc(Nc2ccc(O)cc2)nc(Nc2ccc(C(=O)NCc3ccccc3)cc2)n1)c1ccncc1 [compound 135] | 13.2 % of Ctl | 28.4 % of Ctl | 49.6 % of Ctl |  |
| O=C(NCCOCCNc1nc(Nc2ccc(O)cc2)nc(Nc2ccc(C(=O)NCc3ccccc3)cc2)n1)c1ccc(F)cc1 [compound 136] | 33.3 % of Ctl | 64.1 % of Ctl | 77.9 % of Ctl | 0.0239 µM |
| COc1ccc(C(=O)NCCOCCNc2nc(Nc3ccc(O)cc3)nc(Nc3ccc(C(=O)NCc4ccccc4)cc3)n2)cc1 [compound 137] | 42.0 % of Ctl | 64.9 % of Ctl | 75.6 % of Ctl | 0.0367 µM |
| O=C(NCc1ccccc1)c1ccc(Nc2nc(NCCOCCNS(=O)(=O)c3ccccc3)nc(Nc3ccc(O)cc3)n2)cc1 [compound 138] | 17.8 % of Ctl | 22.5 % of Ctl | 34.5 % of Ctl |  |
| O=C(NCCOCCNc1nc(Nc2ccc(O)cc2)nc(Nc2ccc(C(=O)NCc3ccccc3)cc2)n1)Nc1ccccc1 [compound 139] | 16.3 % of Ctl | 30.7 % of Ctl | 39.0 % of Ctl |  |
| CC(=O)NCCOCCNc1nc(Nc2ccc(O)cc2)nc(Nc2ccc(C(=O)NCc3ccccc3)cc2)n1 [compound 140] | 11.5 % of Ctl | 4.5 % of Ctl | 10.9 % of Ctl |  |
